Consider three compounds from patent US12491182B2, “Polymorphs of triazole antifungal compound PC945” (Pulmocide Limited, priority 2019, dated 2025).

Data set [1] is described as follows: Equilibration of Forms 1 and 2, singularly and as mixtures, in MEK and THF alone and with 5% water. It is filed as physicochemical. The note with it: 5-10 °C, both equilibration temperatures. The text has this: The influence of the initial polymorphic composition on the fate of samples was investigated by equilibration of the either the single polymorphs or an equal mixture of both in anhydrous MEK and THF as well as in the same solvents doped with 5% water.
The results obtained (Table 13) reveal that in anhydrous media the two polymorphs retain their structural integrity, if present singularly (Table 13, Entries 1, 2, 4 and 5). […] (Table 13, Entry 4) which may be attributable to the presence of traces of moisture in a highly hygroscopic solvent.
The results observed when 5% water was admixed to the two solvents indicate that the predominance of the two forms reversed under these conditions, taking kinetic factors into account. In aqueous MEK (5% water) the single polymorphs were again unchanged for the duration of the experiment (Table 13, Entries 7 and 8). In contrast, the binary polymorphic mixture converted into Form 1 in this medium (Table 13, Entry 9). In aqueous THF (5% water) the dominance of Form 1 as the most preferred polymorph was especially evident. In this environment the suspension of Form 1 remained unchanged (Table 13, Entry 10), consistent with the outcome observed for aq MEK under the same conditions.
However, in THF doped with 5% water, both the suspension comprising the binary mixture, as well as that composed of the Form 2 polymorph alone, were transformed into suspensions containing only Form 1 (Table 13, Entries 11 and 12).

The nature of data set [2]: Cross-seeding experiments of Forms 1 and 2 at 5, 25 and 50 °C, XRPD. To be noted: 96 hr. Format: physicochemical. The text has this:
(§1) X-Ray powder diffraction patterns were collected on a PANalytical diffractometer using Cu Kα radiation (45 kV, 40 mA), θ-θ goniometer, focusing mirror, divergence slit (½″), soller slits at both incident and divergent beam (4 mm) and a PIXcel detector. The software used for data collection was X′Pert Data Collector, version 2.2f and the data was presented using X′Pert Data Viewer, version 1.2d. XRPD patterns were acquired under ambient conditions via a transmission foil sample stage (polyimide—Kapton, 12.7 μm thickness film) under ambient conditions using a PANalytical X′Pert PRO. The data collection range was 2.994-35°2θ with a continuous scan speed of 0.202 s^−1.
A mixture of Forms 1 and 2 (50% w/w) was prepared and a sample of the mixture (20 mg) was then suspended in a solvent system (50 vol, 1.0 mL) and shaken at different temperatures for 96 hr. The solids were filtered, air dried and analysed by XRPD. The results obtained (Table 8) reveal that, in all but one of the systems investigated (Entries 10-12), the mixture of polymorphic forms had turned over into Form 2 when maintained at both RT and 50° C. The transformation in propyl acetate was seen to be especially facile as Form 2 was also isolated from the suspension which had been maintained at 5° C. (Entry 1).

Data set [3] is described as follows: Maturation of 1:1 suspensions of Forms 1 and 2 at varying temperatures, XRPD analysis. Format: physicochemical.
Text: It has been determined that the crystalline states, referred to herein as Form 1 and Form 2, constitute an enantiotropic polymorphic pair. This property arises from a temperature dependency of their relative thermodynamic stabilities, whereby one of the polymorphs is the most thermodynamically stable manifestation of the material up to a characteristic (empirically determined) temperature; above which their order of stability is inverted. In the present instance suspensions comprising equal amounts of the two polymorphs were matured, in one of six different solvents, at 50° C., 70° C. and 135° C. (Table 6). In all experiments conducted at both 50° C. and 70° C. the 1:1 mixtures converted into suspensions containing only the Form 2 polymorph. In contrast, all of the mixtures maintained at a temperature of 135° C. were transformed into Form 1.
as §1
A mixture of equal amounts Forms 1 and 2 (100 mg) was charged to crystallisation tubes followed by the selected solvent. The suspensions were heated to the temperatures indicated (Table 6) for 72 hr, during which time samples were taken at 24 hr intervals Solids were isolated at the maturation temperature by filtration and then dried in vacuo at 45° C. for 20 hr. In two cases (Table 6, Entries 1 and 2) suspensions were retained at 135° C. which comprised Form I from the 24 hr time point to the conclusion of the experiment. In the remaining cases (Table 6, Entries 4-6) solutions had formed at 72 hr and solids were recovered by slight cooling, all of which were determined to be Form 1. Those maturated at lower temperatures all gave Form 2 within 24 hr.

In data set [4] the test system is Aspergillus fumigatus. To be noted: topical Compound I in combination with a known systemic triazole agent; lungs of neutropenic, immunocompromised mice; cited from earlier work.
In data set [5] the test system is Aspergillus fumigatus. To be noted: intranasal dosing, immunocompromised mice, repeat dosing; cited from earlier work.
A short description of data set [6]: Solubility of Compound I in MEK/water mixtures. It is filed as physicochemical. The note with it: 25 °C, organic solvent or mixture, thermodynamic from solid. On the procedure:
(Table 12). It was observed that Form 2 integrity was maintained for at least 24 hours at the lower temperature until the water content exceeded 6%, despite an increase in solubility of Compound I from 19 to 30 mg/ml (data not shown).

For data set [7], the target named is T1, Aspergillus fumigatus sterol 14α-demethylase CYP51B (Aspergillus fumigatus, UniProt E9QY26).
T1 sequence (E9QY26 1-524): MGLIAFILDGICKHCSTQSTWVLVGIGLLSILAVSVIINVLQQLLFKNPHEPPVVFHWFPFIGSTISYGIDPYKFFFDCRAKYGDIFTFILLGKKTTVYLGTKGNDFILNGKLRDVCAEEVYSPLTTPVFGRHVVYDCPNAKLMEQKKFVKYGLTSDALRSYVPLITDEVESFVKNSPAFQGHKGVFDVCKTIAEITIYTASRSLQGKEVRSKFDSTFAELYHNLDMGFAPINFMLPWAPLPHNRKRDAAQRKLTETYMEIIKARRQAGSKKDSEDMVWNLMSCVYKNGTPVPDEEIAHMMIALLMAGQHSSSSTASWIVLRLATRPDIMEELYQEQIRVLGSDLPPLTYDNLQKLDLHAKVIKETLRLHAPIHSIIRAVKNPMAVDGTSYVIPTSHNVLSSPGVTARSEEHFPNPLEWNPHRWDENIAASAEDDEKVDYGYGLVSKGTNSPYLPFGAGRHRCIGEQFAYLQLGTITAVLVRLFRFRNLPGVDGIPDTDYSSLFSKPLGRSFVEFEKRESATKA
The note with it: cited from earlier work.

Data set [8] is described as follows: Solubility of Compound I in water. It is filed as physicochemical.
Data set [9] has as its system Aspergillus fumigatus. To be noted: topical Compound I in combination with a known systemic triazole agent; in vitro human alveolus bilayer model; cited from earlier work.
Data set [10] concerns the target T2, Aspergillus fumigatus sterol 14α-demethylase CYP51A (Aspergillus fumigatus, UniProt Q4WNT5).
T2 sequence (Q4WNT5 1-515): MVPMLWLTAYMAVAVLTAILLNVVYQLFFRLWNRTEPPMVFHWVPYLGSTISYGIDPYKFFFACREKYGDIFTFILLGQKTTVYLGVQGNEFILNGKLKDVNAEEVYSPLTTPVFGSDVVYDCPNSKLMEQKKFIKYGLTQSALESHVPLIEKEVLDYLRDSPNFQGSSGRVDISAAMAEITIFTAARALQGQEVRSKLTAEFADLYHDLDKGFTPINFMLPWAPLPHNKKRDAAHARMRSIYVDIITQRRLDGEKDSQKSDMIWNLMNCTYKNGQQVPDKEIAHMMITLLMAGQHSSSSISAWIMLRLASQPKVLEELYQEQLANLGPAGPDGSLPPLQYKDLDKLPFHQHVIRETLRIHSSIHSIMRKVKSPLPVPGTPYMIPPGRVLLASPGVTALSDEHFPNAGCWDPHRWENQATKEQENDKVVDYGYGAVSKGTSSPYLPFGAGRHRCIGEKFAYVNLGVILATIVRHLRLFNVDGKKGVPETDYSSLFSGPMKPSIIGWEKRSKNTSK
To be noted: cited from earlier work.

For data set [11], the system named is Candida auris isolates. The note with it: isolates collected globally; cited from earlier work.

≈ marks a conversion by molar mass, not a printed value. Like-named read-outs stand apart in the source and are kept apart here. Marks after values point to notes of the source that are not given here.

With `[2H]c1c([2H])c(NC(=O)c2ccc(N3CCN(c4ccc(OC[C@@H]5CO[C@@](Cn6cncn6)(c6ccc(F)cc6F)C5)c(C)c4)CC3)cc2)c([2H])c([2H])c1F` [Compound 2, 4-(4-(4-(((3R,5R)-5-((1H-1,2,4-triazol-1-yl)methyl)-5-(2,4-difluorophenyl)tetrahydrofuran-3-yl)methoxy)-3-methylphenyl)piperazin-1-yl)-N-(4-fluorophenyl-2,3,5,6-d4)benzamide, reference compound], the “Form by XRPD Post Equilibration” value in [1] (MEK (anhydrous)) is 2; in data set [1] (MEK/5% Water), 2; in data set [1] (THF (anhydrous), Form 1 input: some evidence of Form 2 at 10 °C) it was 2; in data set [1] (THF/5% Water), 1.

Consider `Cc1cc(N2CCN(c3ccc(C(=O)Nc4ccc(F)cc4)cc3)CC2)ccc1OC[C@@H]1CO[C@@](Cn2cncn2)(c2ccc(F)cc2F)C1` [Forms 1 and 2], for which the “Polymorphic Form by XRPD” value in [2] (PrOAc, 5 °C) worked out at 2; in data set [2] (PrOAc, 25 °C), 2; in data set [2] (PrOAc, 50 °C), 2; in data set [2] (TBME, 25 °C), 2; in [2] (TBME, 50 °C), 2; in [2] (Toluene, 25 °C), 2. Further, the “Polymorphic Form by XRPD” value in data set [2] (Toluene, 50 °C) turned out to be 2. The “Polymorph obtained at temp indicated” value in [3] (decalin, 50 °C, XRPD after 72 hr) was 2; in data set [3] (decalin, 70 °C, XRPD after 72 hr), 2; in data set [3] (decalin, 135 °C, 72 hr, dissolution occurred, solid obtained on slight cooling), 1^b; in data set [3] (diphenyl ether, 50 °C, XRPD after 72 hr), 2; in [3] (diphenyl ether, 70 °C, XRPD after 72 hr) it was 2; in data set [3] (diphenyl ether, 135 °C, 72 hr, dissolution occurred, solid obtained on slight cooling), 1^b. Also, the “Polymorph obtained at temp indicated” value in [3] (heptanol, 50 °C, XRPD after 72 hr) is 2; in [3] (heptanol, 70 °C, XRPD after 72 hr) it was 2; in [3] (heptanol, 135 °C, 72 hr, dissolution occurred, solid obtained on slight cooling), 1^b; in [3] (mesitylene, 50 °C, XRPD after 72 hr) it was 2; in data set [3] (mesitylene, 70 °C, XRPD after 72 hr), 2; in data set [3] (mesitylene, 135 °C, XRPD after 72 hr), 1. Further, the “Polymorph obtained at temp indicated” value was 2 in data set [3] (p-cymene, 50 °C, XRPD after 72 hr); 2 in data set [3] (p-cymene, 70 °C, XRPD after 72 hr); 1^b in data set [3] (p-cymene, 135 °C, 72 hr, dissolution occurred, solid obtained on slight cooling); 2 in [3] (xylenes, 50 °C, XRPD after 72 hr); 2 in data set [3] (xylenes, 70 °C, XRPD after 72 hr); 1 in data set [3] (xylenes, 135 °C, XRPD after 72 hr). The “enantiotropic transition point (temperature at which stability inverts)” value in data set [3] (from maturation of 1:1 mixtures at 50, 70 and 135 °C) is 70-135 °C. Further, the “Form by XRPD Post Equilibration” value is on record as 2 in data set [1] (MEK (anhydrous), listed as 1 + 2); 1 in data set [1] (MEK/5% Water); 2 in [1] (THF (anhydrous), Form 1 input: some evidence of Form 2 at 10 °C, listed as 1 + 2); 1 in data set [1] (THF/5% Water).

Consider `Cc1cc(N2CCN(c3ccc(C(=O)Nc4ccc(F)cc4)cc3)CC2)ccc1OC[C@@H]1CO[C@@](Cn2cncn2)(c2ccc(F)cc2F)C1` [Compound I, 4-(4-(4-(((3R,5R)-5-((1H-1,2,4-triazol-1-yl)methyl)-5-(2,4-difluorophenyl)tetrahydrofuran-3-yl)methoxy)-3-methylphenyl)piperazin-1-yl)-N-(4-fluorophenyl)benzamide], for which the “anti-fungal effect of combination” value in data set [4] and in [9] was “synergistic anti-fungal effects” in each case. Also, in data set [5], the “anti-fungal effects by biomarker analysis” value is “accumulated upon repeat dosing and were persistent”. Moreover, the solubility in [6] (MEK with 8% water by volume) is 23 mg/mL (≈ 33.7 mM); in [6] (MEK with water content rising up to 6% by volume, 25 °C (data not shown)), 19 to 30 mg/mL (≈ 27.8 to 43.9 mM). The “inhibition of sterol 14α-demethylase CYP51B” value in data set [7] is “potent inhibitor”. The solubility in water result in data set [8] is reported as “extremely low solubility”. Further, the “inhibition of sterol 14α-demethylase CYP51A” value in [10] was “potent inhibitor”. Moreover, the “inhibition of Candida auris isolates, potency compared with azoles” value in [11] is “more potent inhibitor than posaconazole, voriconazole and fluconazole”.

Usually solubility stands for the dissolved amount per volume that the medium holds.
